Experimental data from article PMC8482623 (Nature structural & molecular biology, 2020).

Legend:
[1] = target: T1, mBcs1 (full-length mouse Bcs1; mBcs1-His) (Mus musculus, UniProt Q9CZP5); assay: blue-native PAGE band shift; type: binding; conditions: conformational change seen as band shift
T1 sequence (Q9CZP5 1-418): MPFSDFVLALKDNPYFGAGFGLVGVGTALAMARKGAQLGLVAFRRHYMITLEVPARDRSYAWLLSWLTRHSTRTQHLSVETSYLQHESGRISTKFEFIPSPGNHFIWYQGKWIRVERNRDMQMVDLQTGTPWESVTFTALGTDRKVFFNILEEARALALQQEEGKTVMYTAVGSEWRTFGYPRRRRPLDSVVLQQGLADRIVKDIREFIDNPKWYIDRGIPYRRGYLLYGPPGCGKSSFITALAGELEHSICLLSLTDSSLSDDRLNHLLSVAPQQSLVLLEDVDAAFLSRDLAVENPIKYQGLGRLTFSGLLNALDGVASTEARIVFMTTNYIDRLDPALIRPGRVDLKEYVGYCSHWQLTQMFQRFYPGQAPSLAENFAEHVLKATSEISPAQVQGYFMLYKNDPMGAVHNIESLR

ΔNmBcs1 = ΔNmBcs1 (Mus musculus, UniProt Q9CZP5); assay: X-ray crystal structure, […] Å; conditions: 2 mM AMP-PNP, 20 mM MgCl2, pH 7.5; nucleotide-binding site

## Nc1ncnc2c1ncn2[C@@H]1O[C@H](COP(=O)(O)OP(=O)(O)NP(=O)(O)O)[C@@H](O)[C@H]1O [AMP-PNP]
[1]
  blue-native PAGE band shift: incubation of ATPγS or AMP-PNP (nonhydrolyzable ATP) caused a shift in the protein band
ΔNmBcs1
  X-ray crystal structure, 2.2 Å: yielding a heptameric structure with clearly visible bound AMP-PNP
